Data on 10 molecules can be found in US20040096951A1, “Crystal structures of retaining glycosytransferases” (priority 2003, published 2004).

Usually Ki stands for a dissociation constant, usually derived from enzyme kinetics or from competition with a known ligand. Lower therefore signals higher affinity. Broadly, the Km is the concentration of substrate that gives half-maximal velocity.

The target of data set [1] is T1, LgtC (Neisseria meningitidis, UniProt Q93EK7).
T1 construct: a deletion mutant of LgtC missing the C-terminal 25 residues; made in house; host or cells: E. coli (AD202)
The data set is described as follows: biochemical. The class given is biochemical. To be noted: for Function as a substrate for LgtC (transfer): galactosyl β-1,6-lactose incubated in the presence of UDP plus the usual buffer components. As for the experimental part: (§1) Synthesis of UDP-2Fgal was achieved essentially as described previously (ref. 19). Syntheses of 4′-deoxylactose, 6′-deoxylactose and galactosyl β-1,6-lactose will be described elsewhere. Kinetic studies were performed at 30° C. in 20 mM HEPES, pH 7.5 containing 0.1% bovine serum albumin, 50 mM KCl, 5 mM MnCl2 and 5 mM DTT. […] The change in absorbance was measured by means of a UNICAM 8700 UV-Vis spectrophotometer equipped with a circulating water bath. Kinetic parameters were calculated by direct fit of the initial rates to the respective equations using Grafit version 3.0 (ref.43).

The test system of data set [2] is two other galactosyltransferases. The conditions noted are these: shown previously; cited from earlier work.
Data set [3] has as its system OC[C@H]1O[C@@H](O[C@H]2[C@H](O)[C@@H](O)C(O)O[C@@H]2CO)[C@H](O)[C@@H](O)[C@H]1O. The data set is described as follows: purified protein, by the assay type. It counts as biochemical, Neisseria meningitidis. The conditions noted are these: other: LgtC wild type; acceptor substrate; pH 7.5; 30.0 °C.
Data set [4] concerns the target T2, LgtC (Neisseria meningitidis, UniProt Q93EK7, Q189A).
T2 construct: a deletion mutant of LgtC missing the C-terminal 25 residues; made in house; host or cells: E. coli (AD202)
As to the kind of experiment: biochemical. It counts as biochemical. To be noted: Q189A mutant; added reagent. The method, then: as §1

Where a name gives a salt, the structure may show the parent alone.

T2 sequence (Q93EK7 1-286 Q189A): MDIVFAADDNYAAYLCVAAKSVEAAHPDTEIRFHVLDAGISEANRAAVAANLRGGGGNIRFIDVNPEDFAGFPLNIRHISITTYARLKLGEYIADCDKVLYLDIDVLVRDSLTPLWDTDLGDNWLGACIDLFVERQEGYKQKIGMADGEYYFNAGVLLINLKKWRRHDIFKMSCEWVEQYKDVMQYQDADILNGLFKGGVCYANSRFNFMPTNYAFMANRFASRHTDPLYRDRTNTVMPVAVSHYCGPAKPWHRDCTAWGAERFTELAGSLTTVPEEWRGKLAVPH
T1 sequence (Q93EK7 entry or part of it): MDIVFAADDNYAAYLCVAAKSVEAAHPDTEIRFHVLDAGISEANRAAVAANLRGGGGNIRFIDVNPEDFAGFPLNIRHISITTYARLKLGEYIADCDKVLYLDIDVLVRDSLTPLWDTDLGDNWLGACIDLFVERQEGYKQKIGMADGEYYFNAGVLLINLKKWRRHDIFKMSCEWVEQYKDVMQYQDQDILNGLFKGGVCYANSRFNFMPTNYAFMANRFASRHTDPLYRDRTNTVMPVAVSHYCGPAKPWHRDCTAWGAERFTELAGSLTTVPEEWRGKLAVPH

In the case of `OC[C@@H]1C[C@H](O)[C@@H](O)[C@H](O[C@H]2[C@H](O)[C@@H](O)C(O)O[C@@H]2CO)O1` (some centres unmarked) [4-deoxylactose, 4′-Deoxylactose], affinity on LgtC [1] was put at a Ki of 16 mM. Further, the “Function as a substrate for LgtC (transfer)” value (“Function as a substrate” below) at LgtC [1] (LgtC) is “cannot function as a substrate”.

For the molecule `O=c1ccn([C@@H]2O[C@H](COP(=O)(O)OP(=O)(O)O[C@H]3O[C@H](CO)[C@H](O)[C@H](O)[C@H]3F)[C@@H](O)[C@H]2O)c(=O)[nH]1` [UDP-2FGal, Uridine 5′-diphospho-(2-deoxy-2-fluoro)-α-D-galactopyranose, di-ammonium Salt, reference compound], the inhibitory constant (Ki) on LgtC [1] was determined as 0.002 mM. For the same molecule, the “Function as a substrate” value on LgtC [1] (LgtC) is “no transfer occurs”. Further, the “Inhibition of other galactosyltransferases” value in data set [2] was “shown to inhibit”.

In the case of LgtC (Neisseria meningitidis), in data set [3], the Km was determined as 20 mM.

As to `C[C@H]1OC(O)[C@H](O)[C@@H](O)[C@@H]1O[C@@H]1O[C@H](CO)[C@H](O)[C@H](O)[C@H]1O` (some centres unmarked) [6-deoxylactose], at LgtC [1] (LgtC), the “Action as an inhibitor of LgtC” value was “neither did it act as an inhibitor” and the “Function as a substrate” value was “shown not to function as a substrate”.

Consider `CC(=O)O` [acetate], for which, at LgtC [4], the “Rescue of activity of the Q189A mutant by added small molecules (rate increase)” value (from here on “Rescue of activity … (rate increase)”) is “No rate increases were observed”.

As for `O=CO` [formate], the “Rescue of activity … (rate increase)” value at LgtC [4] was “No rate increases were observed”.

Regarding `CC(N)=O` [acetamide], on LgtC [4], the “Rescue of activity … (rate increase)” value is “No rate increases were observed”.

Turning to `[N-]=[N+]=[N-]` [azide], on LgtC [4], the “Rescue of activity … (rate increase)” value is recorded as “No rate increases were observed”.

`NC=O` [formamide]: the “Rescue of activity … (rate increase)” value on LgtC [4] is “No rate increases were observed”.

galactosyl β-1,6-lactose: the “Function as a substrate” value at LgtC [1] (LgtC) is listed as “does not function as a substrate”.
